The target of the test is T1, human D3 dopamine receptors (Homo sapiens, UniProt P35462).
T1 construct: expressed in transfected cells; host or cells: CHO cells
The test is described as follows: [125I] iodosulpride displacement binding to cloned human D3 dopamine receptors expressed in CHO cells. To be noted: displacement of 0.1 nM [125I] iodosulpride, CHO cell membranes, 30 min at 37° C.; read-out: IC50 values at the human D3 receptor. The method, then: The inhibition constants (Ki) of test compounds for displacement of [^125 I] iodosulpride binding to human D3 dopamine receptors expressed in CHO cells were determined as follows. […] Cultures were grown as monolayers or in suspension in standard cell culture media. Cells were recovered by scraping (from monolayers) or by centrifugation (from suspension cultures), and were washed two or three times by suspension in phosphate buffered saline followed by collection by centrifugation. Cell pellets were stored frozen at -40° C. Crude cell membranes were prepared by homogenisation followed by high-speed centrifugation, and characterisation of cloned receptors achieved by radioligand binding.
Cell pellets were gently thawed at room temperature, and resuspended in about 20 volumes of ice-cold 50 mM Tris salts (pH 7.4@37° C.), 20 mM EDTA, 0.2M sucrose. The suspension was homogenised using an Ultra-Turrax at full speed for 15 sec. The homogenate was centrifuged at 18,000 r.p.m for 20 min at 4° C. in a SorvalI RC5C centrifuge. The membrane pellet was resuspended in ice-cold 50 mM Tris salts (pH 7.4@37° C.), using an Ultra-Turrax, and recentrifuged at 18,000 r.p.m for 15 min at 4° C. in a Sorvall RC5C. The membranes were washed two more times with ice-cold 50 mM Tris salts (pH 7.4@37° C.). The final pellet was resuspended in 50 mM Tris salts (pH 7.4@37° C.), and the protein content determined using bovine serum albumin as a standard (Bradford, M. M. (1976) Anal. Biochem. 72, 248-254).
Crude cell membranes were incubated with 0.1 nM [^125 I] iodosulpride (~2000 Ci/mmol; Amersham, U. K.), and the test compound in a buffer containing 50 mM Tris salts (pH 7.4@37° C.), 120 mM NaCl, 5 mM KCl, 2 mM CaCl2, 1 mM MgCl2, 0.1% (w/v) bovine serum albumin, in a total volume of 1 ml for 30 min at 37° C. […] The radioactivity on the filters was measured using a Cobra gamma counter (Canberra Packard). […]
Competition curves were analysed simultaneously whenever possible using non-linear least-squares fitting procedures, capable of fitting one, two or three site models.

Structures can show the parent of a compound that is named as a salt.

T1 sequence (P35462 whole entry): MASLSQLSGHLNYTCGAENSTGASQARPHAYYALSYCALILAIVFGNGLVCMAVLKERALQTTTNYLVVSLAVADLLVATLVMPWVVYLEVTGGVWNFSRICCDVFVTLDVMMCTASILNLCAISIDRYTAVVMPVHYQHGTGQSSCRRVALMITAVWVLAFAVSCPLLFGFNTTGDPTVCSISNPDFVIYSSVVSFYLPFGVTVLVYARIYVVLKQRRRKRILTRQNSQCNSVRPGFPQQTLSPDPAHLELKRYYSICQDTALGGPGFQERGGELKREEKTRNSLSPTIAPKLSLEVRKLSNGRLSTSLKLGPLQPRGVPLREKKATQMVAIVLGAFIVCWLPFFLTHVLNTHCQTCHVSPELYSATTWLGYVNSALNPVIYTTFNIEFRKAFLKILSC

In the case of `CCN1CCCC1c1ccc(-c2cc(S(=O)(=O)Oc3ccccc3)ccc2OC)[nH]1` (racemic) [Example 2, 2-(2-(R,S)-(1-Ethylpyrrolidinyl))-5-(2-methoxy-5-phenoxysulphonylphenyl)-1H-pyrrole hydrochloride.], the 50% inhibitory concentration (IC50) is 0.005 to 0.02 µM. For the molecule `COc1ccc(S(=O)(=O)Oc2ccccc2)cc1-c1ccc(CN2CCCCCC2c2ccccc2)[nH]1` (stereo not drawn) [Example 1, 2-(2-Methoxy-5-Phenoxysulfonylphenyl)-5-(1-[2-phenylazacycloheptyl]methyl)-1H-pyrrole, hydrochloride], the IC50 fell in the range of 0.005 to 0.02 µM. Under `CCN(Cc1ccccc1)Cc1ccc(-c2cc(S(=O)(=O)Oc3ccccc3)ccc2OC)[nH]1` [Example 3, 2-(N-Benzyl-N-ethyl)aminomethyl-5-(2-methoxy-5-phenoxysulphonylphenyl)-1H-pyrrole hydrochloride] stands 0.005 to 0.02 µM.
